Test results: patent US7964531B2, “3-phenoxy-4-pyridazinol derivatives and herbicidal composition containing the same” (Mitsui Chemicals Agro, Inc., priority 2001, dated 2011)

Legend:
Format in all cases: in vivo
Details in all cases: wettable powder applied 3 days after transplanting, judged after 25 days
[1] = tested on: transplanted paddy-field rice; assay: Test Example 1: crop injury against transplanted paddy-field rice
How it was run: (§1)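 Paddy-soil pots sown with weed seeds, germinated Cyperus serotinus tubers and 2.2-leaf rice transplants, kept flooded in a greenhouse. Wettable powder diluted in water applied at set dosage 3 days after transplanting. Weed control and rice injury scored 25 days later on a 0-5 growth-inhibition scale.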

[2] = tested on: Scirpus joncoides; assay: Test Example 1: herbicidal effects, paddy-field pot test
How it was run: as §1

[3] = tested on: barnyardgrass (Echinochloa oryzicola Vasing.); assay: as above
How it was run: as §1

[4] = tested on: Cyperus serotinus; assay: as above
How it was run: as §1

[5] = tested on: annual broad-leaved weeds (Lindernia spp., Rotala indica); assay: as above
How it was run: as §1

Cc1ccc(C)c(Oc2nnc(Cl)cc2O)c1C [Example 295]
Crop injury against transplanted rice ([1]; chemical dosage 12.5 g/a): 0 (Growth inhibition rate; 0 to 10%) | Crop injury against transplanted rice ([1]; chemical dosage 25 g/a): 0 (Growth inhibition rate; 0 to 10%) | Herbicidal effects Scirpus joncoides ([2]; chemical dosage 12.5 g/a): 5 (Growth inhibition rate; 91 to 100%) | Herbicidal effects Scirpus joncoides ([2]; chemical dosage 25 g/a): 5 (Growth inhibition rate; 91 to 100%) | Herbicidal effects Barnyard grass ([3]; chemical dosage 12.5 g/a): 0 (Growth inhibition rate; 0 to 10%) | Herbicidal effects Barnyard grass ([3]; chemical dosage 25 g/a): 1 (Growth inhibition rate; 11 to 30%) | Herbicidal effects Cyperus serotinus ([4]; chemical dosage 12.5 g/a): 5 (Growth inhibition rate; 91 to 100%) | Herbicidal effects Cyperus serotinus ([4]; chemical dosage 25 g/a): 5 (Growth inhibition rate; 91 to 100%) | Herbicidal effects Broad leaf ([5]; chemical dosage 12.5 g/a): 5 (Growth inhibition rate; 91 to 100%) | Herbicidal effects Broad leaf ([5]; chemical dosage 25 g/a): 5 (Growth inhibition rate; 91 to 100%)

Oc1cc(Cl)nnc1Oc1c(Cl)cccc1Cl [Example 240]
Crop injury against transplanted rice ([1]; chemical dosage 12.5 g/a): 0 (Growth inhibition rate; 0 to 10%) | Crop injury against transplanted rice ([1]; chemical dosage 25 g/a): 0 (Growth inhibition rate; 0 to 10%) | Herbicidal effects Scirpus joncoides ([2]; chemical dosage 12.5 g/a): 3 (Growth inhibition rate; 51 to 70%) | Herbicidal effects Scirpus joncoides ([2]; chemical dosage 25 g/a): 4 (Growth inhibition rate; 71 to 90%) | Herbicidal effects Barnyard grass ([3]; chemical dosage 12.5 g/a): 2 (Growth inhibition rate; 31 to 50%) | Herbicidal effects Barnyard grass ([3]; chemical dosage 25 g/a): 3 (Growth inhibition rate; 51 to 70%) | Herbicidal effects Cyperus serotinus ([4]; chemical dosage 12.5 g/a): 5 (Growth inhibition rate; 91 to 100%) | Herbicidal effects Cyperus serotinus ([4]; chemical dosage 25 g/a): 5 (Growth inhibition rate; 91 to 100%) | Herbicidal effects Broad leaf ([5]; chemical dosage 12.5 g/a): 5 (Growth inhibition rate; 91 to 100%) | Herbicidal effects Broad leaf ([5]; chemical dosage 25 g/a): 5 (Growth inhibition rate; 91 to 100%)

Oc1cc(Cl)nnc1Oc1ccccc1C1CCC1 [Example 85]
Crop injury against transplanted rice ([1]; chemical dosage 10 g/a): 0 (Growth inhibition rate; 0 to 10%) | Herbicidal effects Scirpus joncoides ([2]; chemical dosage 10 g/a): 3 (Growth inhibition rate; 51 to 70%) | Herbicidal effects Barnyard grass ([3]; chemical dosage 10 g/a): 2 (Growth inhibition rate; 31 to 50%) | Herbicidal effects Cyperus serotinus ([4]; chemical dosage 10 g/a): 5 (Growth inhibition rate; 91 to 100%) | Herbicidal effects Broad leaf ([5]; chemical dosage 10 g/a): 4 (Growth inhibition rate; 71 to 90%)

COc1cccc(F)c1Oc1nnc(Cl)cc1O [Example 239]
Crop injury against transplanted rice ([1]; chemical dosage 20 g/a): 0 (Growth inhibition rate; 0 to 10%) | Herbicidal effects Scirpus joncoides ([2]; chemical dosage 20 g/a): 5 (Growth inhibition rate; 91 to 100%) | Herbicidal effects Barnyard grass ([3]; chemical dosage 20 g/a): 0 (Growth inhibition rate; 0 to 10%) | Herbicidal effects Cyperus serotinus ([4]; chemical dosage 20 g/a): 4 (Growth inhibition rate; 71 to 90%) | Herbicidal effects Broad leaf ([5]; chemical dosage 20 g/a): 5 (Growth inhibition rate; 91 to 100%)

Oc1cc(Cl)nnc1Oc1cc(Cl)ccc1C1CC1 [Example 217]
Crop injury against transplanted rice ([1]; chemical dosage 10 g/a): 0 (Growth inhibition rate; 0 to 10%) | Crop injury against transplanted rice ([1]; chemical dosage 20 g/a): 0 (Growth inhibition rate; 0 to 10%) | Herbicidal effects Scirpus joncoides ([2]; chemical dosage 10 g/a): 5 (Growth inhibition rate; 91 to 100%) | Herbicidal effects Scirpus joncoides ([2]; chemical dosage 20 g/a): 5 (Growth inhibition rate; 91 to 100%) | Herbicidal effects Barnyard grass ([3]; chemical dosage 10 g/a): 2 (Growth inhibition rate; 31 to 50%) | Herbicidal effects Barnyard grass ([3]; chemical dosage 20 g/a): 4 (Growth inhibition rate; 71 to 90%) | Herbicidal effects Cyperus serotinus ([4]; chemical dosage 10 g/a): 5 (Growth inhibition rate; 91 to 100%) | Herbicidal effects Cyperus serotinus ([4]; chemical dosage 20 g/a): 5 (Growth inhibition rate; 91 to 100%) | Herbicidal effects Broad leaf ([5]; chemical dosage 10 g/a): 5 (Growth inhibition rate; 91 to 100%) | Herbicidal effects Broad leaf ([5]; chemical dosage 20 g/a): 5 (Growth inhibition rate; 91 to 100%)

Cc1ccc(C2CC2)c(Oc2nnc(Cl)cc2O)c1 [Example 218]
Crop injury against transplanted rice ([1]; chemical dosage 10 g/a): 0 (Growth inhibition rate; 0 to 10%) | Crop injury against transplanted rice ([1]; chemical dosage 20 g/a): 0 (Growth inhibition rate; 0 to 10%) | Herbicidal effects Scirpus joncoides ([2]; chemical dosage 10 g/a): 5 (Growth inhibition rate; 91 to 100%) | Herbicidal effects Scirpus joncoides ([2]; chemical dosage 20 g/a): 5 (Growth inhibition rate; 91 to 100%) | Herbicidal effects Barnyard grass ([3]; chemical dosage 10 g/a): 0 (Growth inhibition rate; 0 to 10%) | Herbicidal effects Barnyard grass ([3]; chemical dosage 20 g/a): 1 (Growth inhibition rate; 11 to 30%) | Herbicidal effects Cyperus serotinus ([4]; chemical dosage 10 g/a): 5 (Growth inhibition rate; 91 to 100%) | Herbicidal effects Cyperus serotinus ([4]; chemical dosage 20 g/a): 5 (Growth inhibition rate; 91 to 100%) | Herbicidal effects Broad leaf ([5]; chemical dosage 10 g/a): 5 (Growth inhibition rate; 91 to 100%) | Herbicidal effects Broad leaf ([5]; chemical dosage 20 g/a): 5 (Growth inhibition rate; 91 to 100%)

Oc1cc(Cl)nnc1Oc1c(Br)ccc2c1CCC2 [Example 304]
Crop injury against transplanted rice ([1]; chemical dosage 10 g/a): 0 (Growth inhibition rate; 0 to 10%) | Crop injury against transplanted rice ([1]; chemical dosage 20 g/a): 0 (Growth inhibition rate; 0 to 10%) | Herbicidal effects Scirpus joncoides ([2]; chemical dosage 10 g/a): 4 (Growth inhibition rate; 71 to 90%) | Herbicidal effects Scirpus joncoides ([2]; chemical dosage 20 g/a): 5 (Growth inhibition rate; 91 to 100%) | Herbicidal effects Barnyard grass ([3]; chemical dosage 10 g/a): 4 (Growth inhibition rate; 71 to 90%) | Herbicidal effects Barnyard grass ([3]; chemical dosage 20 g/a): 4 (Growth inhibition rate; 71 to 90%) | Herbicidal effects Cyperus serotinus ([4]; chemical dosage 10 g/a): 4 (Growth inhibition rate; 71 to 90%) | Herbicidal effects Cyperus serotinus ([4]; chemical dosage 20 g/a): 5 (Growth inhibition rate; 91 to 100%) | Herbicidal effects Broad leaf ([5]; chemical dosage 10 g/a): 5 (Growth inhibition rate; 91 to 100%) | Herbicidal effects Broad leaf ([5]; chemical dosage 20 g/a): 5 (Growth inhibition rate; 91 to 100%)

CC(C)c1cccc(Cl)c1Oc1nnc(Cl)cc1O [Example 18]
Crop injury against transplanted rice ([1]; chemical dosage 12.5 g/a): 1 (Growth inhibition rate; 11 to 30%) | Crop injury against transplanted rice ([1]; chemical dosage 25 g/a): 2 (Growth inhibition rate; 31 to 50%) | Herbicidal effects Scirpus joncoides ([2]; chemical dosage 12.5 g/a): 3 (Growth inhibition rate; 51 to 70%) | Herbicidal effects Scirpus joncoides ([2]; chemical dosage 25 g/a): 4 (Growth inhibition rate; 71 to 90%) | Herbicidal effects Barnyard grass ([3]; chemical dosage 12.5 g/a): 0 (Growth inhibition rate; 0 to 10%) | Herbicidal effects Barnyard grass ([3]; chemical dosage 25 g/a): 1 (Growth inhibition rate; 11 to 30%) | Herbicidal effects Cyperus serotinus ([4]; chemical dosage 12.5 g/a): 5 (Growth inhibition rate; 91 to 100%) | Herbicidal effects Cyperus serotinus ([4]; chemical dosage 25 g/a): 5 (Growth inhibition rate; 91 to 100%) | Herbicidal effects Broad leaf ([5]; chemical dosage 12.5 g/a): 5 (Growth inhibition rate; 91 to 100%) | Herbicidal effects Broad leaf ([5]; chemical dosage 25 g/a): 5 (Growth inhibition rate; 91 to 100%)

Oc1cc(Cl)nnc1Oc1c(Br)cccc1C1CC1 [Example 253]
Crop injury against transplanted rice ([1]; chemical dosage 10 g/a): 5 (Growth inhibition rate; 91 to 100%) | Crop injury against transplanted rice ([1]; chemical dosage 20 g/a): 5 (Growth inhibition rate; 91 to 100%) | Herbicidal effects Scirpus joncoides ([2]; chemical dosage 10 g/a): 5 (Growth inhibition rate; 91 to 100%) | Herbicidal effects Scirpus joncoides ([2]; chemical dosage 20 g/a): 5 (Growth inhibition rate; 91 to 100%) | Herbicidal effects Barnyard grass ([3]; chemical dosage 10 g/a): 3 (Growth inhibition rate; 51 to 70%) | Herbicidal effects Barnyard grass ([3]; chemical dosage 20 g/a): 4 (Growth inhibition rate; 71 to 90%) | Herbicidal effects Cyperus serotinus ([4]; chemical dosage 10 g/a): 5 (Growth inhibition rate; 91 to 100%) | Herbicidal effects Cyperus serotinus ([4]; chemical dosage 20 g/a): 5 (Growth inhibition rate; 91 to 100%) | Herbicidal effects Broad leaf ([5]; chemical dosage 10 g/a): 5 (Growth inhibition rate; 91 to 100%) | Herbicidal effects Broad leaf ([5]; chemical dosage 20 g/a): 5 (Growth inhibition rate; 91 to 100%)

Oc1cc(Cl)nnc1Oc1c(F)cccc1Cl [Example 232]
Crop injury against transplanted rice ([1]; chemical dosage 10 g/a): 0 (Growth inhibition rate; 0 to 10%) | Crop injury against transplanted rice ([1]; chemical dosage 20 g/a): 0 (Growth inhibition rate; 0 to 10%) | Herbicidal effects Scirpus joncoides ([2]; chemical dosage 10 g/a): 3 (Growth inhibition rate; 51 to 70%) | Herbicidal effects Scirpus joncoides ([2]; chemical dosage 20 g/a): 4 (Growth inhibition rate; 71 to 90%) | Herbicidal effects Barnyard grass ([3]; chemical dosage 10 g/a): 4 (Growth inhibition rate; 71 to 90%) | Herbicidal effects Barnyard grass ([3]; chemical dosage 20 g/a): 4 (Growth inhibition rate; 71 to 90%) | Herbicidal effects Cyperus serotinus ([4]; chemical dosage 10 g/a): 4 (Growth inhibition rate; 71 to 90%) | Herbicidal effects Cyperus serotinus ([4]; chemical dosage 20 g/a): 5 (Growth inhibition rate; 91 to 100%) | Herbicidal effects Broad leaf ([5]; chemical dosage 10 g/a): 5 (Growth inhibition rate; 91 to 100%) | Herbicidal effects Broad leaf ([5]; chemical dosage 20 g/a): 5 (Growth inhibition rate; 91 to 100%)

CC(C)c1cccc(F)c1Oc1nnc(Cl)cc1O [Example 235]
Crop injury against transplanted rice ([1]; chemical dosage 10 g/a): 0 (Growth inhibition rate; 0 to 10%) | Crop injury against transplanted rice ([1]; chemical dosage 20 g/a): 0 (Growth inhibition rate; 0 to 10%) | Herbicidal effects Scirpus joncoides ([2]; chemical dosage 10 g/a): 5 (Growth inhibition rate; 91 to 100%) | Herbicidal effects Scirpus joncoides ([2]; chemical dosage 20 g/a): 5 (Growth inhibition rate; 91 to 100%) | Herbicidal effects Barnyard grass ([3]; chemical dosage 10 g/a): 3 (Growth inhibition rate; 51 to 70%) | Herbicidal effects Barnyard grass ([3]; chemical dosage 20 g/a): 3 (Growth inhibition rate; 51 to 70%) | Herbicidal effects Cyperus serotinus ([4]; chemical dosage 10 g/a): 5 (Growth inhibition rate; 91 to 100%) | Herbicidal effects Cyperus serotinus ([4]; chemical dosage 20 g/a): 5 (Growth inhibition rate; 91 to 100%) | Herbicidal effects Broad leaf ([5]; chemical dosage 10 g/a): 5 (Growth inhibition rate; 91 to 100%) | Herbicidal effects Broad leaf ([5]; chemical dosage 20 g/a): 5 (Growth inhibition rate; 91 to 100%)

CC(C)(C)c1cccc(C2CC2)c1Oc1nnc(Cl)cc1O [Example 274]
Crop injury against transplanted rice ([1]; chemical dosage 10 g/a): 0 (Growth inhibition rate; 0 to 10%) | Crop injury against transplanted rice ([1]; chemical dosage 20 g/a): 0 (Growth inhibition rate; 0 to 10%) | Herbicidal effects Scirpus joncoides ([2]; chemical dosage 10 g/a): 3 (Growth inhibition rate; 51 to 70%) | Herbicidal effects Scirpus joncoides ([2]; chemical dosage 20 g/a): 4 (Growth inhibition rate; 71 to 90%) | Herbicidal effects Barnyard grass ([3]; chemical dosage 10 g/a): 3 (Growth inhibition rate; 51 to 70%) | Herbicidal effects Barnyard grass ([3]; chemical dosage 20 g/a): 3 (Growth inhibition rate; 51 to 70%) | Herbicidal effects Cyperus serotinus ([4]; chemical dosage 10 g/a): 4 (Growth inhibition rate; 71 to 90%) | Herbicidal effects Cyperus serotinus ([4]; chemical dosage 20 g/a): 4 (Growth inhibition rate; 71 to 90%) | Herbicidal effects Broad leaf ([5]; chemical dosage 10 g/a): 5 (Growth inhibition rate; 91 to 100%) | Herbicidal effects Broad leaf ([5]; chemical dosage 20 g/a): 5 (Growth inhibition rate; 91 to 100%)

Cc1cccc(Cl)c1Oc1nnc(Cl)cc1O [Example 242]
Crop injury against transplanted rice ([1]; chemical dosage 12.5 g/a): 0 (Growth inhibition rate; 0 to 10%) | Crop injury against transplanted rice ([1]; chemical dosage 25 g/a): 0 (Growth inhibition rate; 0 to 10%) | Herbicidal effects Scirpus joncoides ([2]; chemical dosage 12.5 g/a): 3 (Growth inhibition rate; 51 to 70%) | Herbicidal effects Scirpus joncoides ([2]; chemical dosage 25 g/a): 4 (Growth inhibition rate; 71 to 90%) | Herbicidal effects Barnyard grass ([3]; chemical dosage 12.5 g/a): 3 (Growth inhibition rate; 51 to 70%) | Herbicidal effects Barnyard grass ([3]; chemical dosage 25 g/a): 4 (Growth inhibition rate; 71 to 90%) | Herbicidal effects Cyperus serotinus ([4]; chemical dosage 12.5 g/a): 5 (Growth inhibition rate; 91 to 100%) | Herbicidal effects Cyperus serotinus ([4]; chemical dosage 25 g/a): 5 (Growth inhibition rate; 91 to 100%) | Herbicidal effects Broad leaf ([5]; chemical dosage 12.5 g/a): 5 (Growth inhibition rate; 91 to 100%) | Herbicidal effects Broad leaf ([5]; chemical dosage 25 g/a): 5 (Growth inhibition rate; 91 to 100%)
